Test results reported in ChEMBL document CHEMBL5137082, “Discovery of a Novel Vascular Disrupting Agent Inhibiting Tubulin Polymerization and HDACs with Potent Antitumor Effects” (J Med Chem, 2022).
Calls of active or inactive are those of the source. The calls are words filed in the database; no cut-off is given here.

What was measured:
[1] = test system: MDA-MB-231; experiment: Antiproliferative activity against human MDA-MB-231 cells assessed as inhibition of cell growth measured after 72 hrs by MTT assay; type: functional, cell-based; conditions: MDA-MB-231, 72 h
[2] = test system: HepG2; experiment: Induction of apoptosis in human HepG2 cells assessed as late apoptotic cells at 30 nM incubated for 48 hrs by Annexin-V/PI-staining based flow cytometry (reference value: 2.53 +/- 0.34%); type: functional
[3] = Cardiotoxicity in ICR mouse allografted with mouse H22 cells assessed as effect on QRS complex at 20 mg/kg, iv administered qd measured after 21 days by ECG analysis; type: toxicity, organism-based; conditions: in vivo, 504 h, time 21 day
[4] = Toxicity in ICR mouse allografted with mouse H22 cells assessed as effect on body weight at 20 mg/kg, iv administered qd measured after 21 days; type: organism-based; conditions: in vivo, 504 h, time 21 day
[5] = test system: HepG2; experiment: Induction of apoptosis in human HepG2 cells assessed as necrotic cells at 30 nM incubated for 48 hrs by Annexin-V/PI-staining based flow cytometry (reference value: 1.43 +/- 0.26%); type: functional
[6] = test system: H22; experiment: Antitumor activity against mouse H22 cells allografted in ICR mouse assessed as inhibition of tumor growth at 20 mg/kg, iv administered qd for 21 days measured after 12 days; type: functional, organism-based; conditions: time 21.0 day
[7] = Toxicity in ICR mouse allografted with mouse H22 cells assessed as diastolic blood pressure at 20 mg/kg, iv administered qd measured after 21 days; type: organism-based; conditions: in vivo, 504 h, time 21 day
[8] = test system: HepG2; experiment: Induction of G2/M phase cell cycle arrest in human HepG2 cells assessed as decrease in Cdc2 protein expression at 7.5 to 30 nM measured after 24 hrs by western blot analysis; type: functional, cell-based; conditions: dose 7.5-30 nM
[9] = Antiproliferative activity against human HFL1 cells assessed as inhibition of cell growth measured after 72 hrs by MTT assay; type: toxicity, cell-based
[10] = Toxicity in ICR mouse allografted with mouse H22 cells assessed as pathological changes in lung at 20 mg/kg, iv administered qd measured after 21 days by H and E staining based analysis; type: organism-based; conditions: in vivo, 504 h, time 21 day
[11] = test system: MDA-MB-231; experiment: Inhibition of cell invasion in human MDA-MB-231 cells measured after 48 hrs by crystal violet staining based transwell assay; type: functional; conditions: dose 7.5-30 nM, DDE = dose-dependent effect
[12] = Toxicity in ICR mouse allografted with mouse H22 cells assessed as systolic blood pressure at 20 mg/kg, iv administered qd measured after 21 days; type: organism-based; conditions: in vivo, 504 h, time 21 day
[13] = Cardiotoxicity in ICR mouse allografted with mouse H22 cells assessed as effect on P wave at 20 mg/kg, iv administered qd measured after 21 days by ECG analysis; type: toxicity, organism-based; conditions: in vivo, 504 h, time 21 day
[14] = test system: HepG2; experiment: Antiproliferative activity against human HepG2 cells assessed as inhibition of cell growth measured after 72 hrs by MTT assay; type: functional, cell-based; conditions: HepG2, 72 h
[15] = test system: HepG2; experiment: Induction of apoptosis in human HepG2 cells assessed as downregulation of Bcl-2 protein expression measured after 24 hrs by Western blot analysis; type: functional, cell-based; conditions: dose 7.5-30 nM, DDE = dose-dependent effect
[16] = test system: HepG2; experiment: Induction of ROS generation in human HepG2 cells assessed as increase in ROS level at 30 nM incubated for 48 hrs by DCF-DA staining-based flow cytometry analysis (reference value: 3.73%); type: functional
[17] = test system: Mus musculus; experiment: In vivo inhibition of HDAC in ICR mouse allografted with mouse H22 cells assessed as upregulation of acetyl-histone H3 expression at 20 mg/kg, iv qd administered for 21 days measured after 24 hrs by Western blot analysis; type: functional, organism-based; conditions: time 21.0 day
[18] = test system: HepG2; experiment: Induction of morphological changes in human HepG2 cells assessed as chromatin aggregation at 7.5 to 30 nM after 48 hrs by Hoechst 33258 staining based fluorescence microscopic analysis; type: functional, cell-based; conditions: dose 7.5-30 nM
[19] = Toxicity in ICR mouse allografted with mouse H22 cells assessed as pathological changes in kidney at 20 mg/kg, iv administered qd measured after 21 days by H and E staining based analysis; type: organism-based; conditions: in vivo, 504 h, time 21 day
[20] = test system: MDA-MB-231; experiment: Inhibition of cell migration in human MDA-MB-231 cells measured after 48 hrs by crystal violet staining based transwell assay; type: functional; conditions: dose 7.5-30 nM, DDE = dose-dependent effect
[21] = test system: HepG2; experiment: Induction of apoptosis in human HepG2 cells assessed as early apoptotic cells at 15 nM incubated for 48 hrs by Annexin-V/PI-staining based flow cytometry (reference value: 4.61 +/- 0.46%); type: functional
[22] = molecular target: Histone deacetylase 2 (Homo sapiens, UniProt Q92769); experiment: Inhibition of HDAC2 in human HepG2 cells assessed as increase in level of acetyl histone H3substrate incubated for 24 hrs by chemiluminescence based Western blotting analysis; type: cell-based; conditions: dose 0.03-0.3 µM
[23] = test system: HepG2; experiment: Induction of G2/M phase cell cycle arrest in human HepG2 cells assessed as decrease in cyclin B1 protein expression at 7.5 to 30 nM measured after 24 hrs by western blot analysis; type: functional, cell-based; conditions: dose 7.5-30 nM
[24] = molecular target: Histone deacetylase 3 (Homo sapiens, UniProt O15379); experiment: Inhibition of HDAC3 in human HepG2 cells assessed as increase in level of acetyl histone H3substrate incubated for 24 hrs by chemiluminescence based Western blotting analysis; type: cell-based; conditions: dose 0.03-0.3 µM
[25] = test system: HepG2; experiment: Induction of cell cycle arrest in human HepG2 cells assessed as accumulation G1 phase at 30 nM incubated for 48 hrs by propidium iodide staining based flow cytometry analysis (reference value: 59.32 +/- 0.77%); type: functional
[26] = test system: HepG2; experiment: Induction of apoptosis in human HepG2 cells assessed as necrotic cells at 15 nM incubated for 48 hrs by Annexin-V/PI-staining based flow cytometry (reference value: 1.43 +/- 0.26%); type: functional
[27] = molecular target: T1, Histone deacetylase 8 (Homo sapiens, UniProt Q9BY41); experiment: Inhibition of HDAC8 in human HeLa cells using BOC-K(Ac)-AMC as substrate measured after 30 mins by fluorescence based microtiter plate reader assay; type: cell-based
T1 sequence (Q9BY41 whole entry): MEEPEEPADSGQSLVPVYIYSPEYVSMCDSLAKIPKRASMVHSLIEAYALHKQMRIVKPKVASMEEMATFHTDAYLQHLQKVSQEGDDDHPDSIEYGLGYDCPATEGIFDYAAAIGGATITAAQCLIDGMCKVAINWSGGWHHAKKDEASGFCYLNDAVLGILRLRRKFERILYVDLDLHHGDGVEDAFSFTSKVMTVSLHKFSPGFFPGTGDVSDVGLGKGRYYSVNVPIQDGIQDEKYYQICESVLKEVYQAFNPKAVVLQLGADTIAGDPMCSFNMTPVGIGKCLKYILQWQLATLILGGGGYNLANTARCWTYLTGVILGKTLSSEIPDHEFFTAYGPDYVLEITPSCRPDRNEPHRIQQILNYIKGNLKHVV

[28] = test system: HepG2; experiment: Induction of apoptosis in human HepG2 cells assessed as viable cells at 30 nM incubated for 48 hrs by Annexin-V/PI-staining based flow cytometry (reference value: 91.44 +/- 0.74%); type: functional; conditions: read-out: Activity
[29] = Metabolic stability in mouse liver microsomes assessed as intrinsic clearance at 1 uM in presence of NADPH measured per gram protein up to 60 mins by LC-MS/MS analysis; type: ADME, Microsome; conditions: 1 h
[30] = test system: PC-3; experiment: Induction of apoptosis in human PC-3 cells assessed as mitochondrial membrane potential loss by measuring decrease in red fluorescence at 30 nM incubated for 48 hrs by JC1 staining based flow cytometry analysis (reference value: 93.48 +/- 0.15%); type: functional; parameters: scale not given: the % may be the effect or the level left

Sequence of Histone deacetylase 2 (Q92769 whole entry): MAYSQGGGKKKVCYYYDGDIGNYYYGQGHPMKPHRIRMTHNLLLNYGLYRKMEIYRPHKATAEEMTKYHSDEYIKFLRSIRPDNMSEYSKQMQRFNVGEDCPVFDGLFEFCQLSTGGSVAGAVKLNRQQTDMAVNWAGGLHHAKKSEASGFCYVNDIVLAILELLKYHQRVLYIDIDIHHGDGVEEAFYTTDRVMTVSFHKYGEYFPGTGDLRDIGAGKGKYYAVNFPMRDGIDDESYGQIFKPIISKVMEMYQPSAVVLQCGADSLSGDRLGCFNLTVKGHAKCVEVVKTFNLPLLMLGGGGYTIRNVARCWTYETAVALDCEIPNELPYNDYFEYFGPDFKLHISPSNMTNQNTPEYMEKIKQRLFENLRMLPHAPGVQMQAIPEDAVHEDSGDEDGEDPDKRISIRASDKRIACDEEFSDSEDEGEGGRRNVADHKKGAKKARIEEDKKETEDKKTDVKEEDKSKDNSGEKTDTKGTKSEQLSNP
Sequence of Histone deacetylase 3 (O15379 whole entry): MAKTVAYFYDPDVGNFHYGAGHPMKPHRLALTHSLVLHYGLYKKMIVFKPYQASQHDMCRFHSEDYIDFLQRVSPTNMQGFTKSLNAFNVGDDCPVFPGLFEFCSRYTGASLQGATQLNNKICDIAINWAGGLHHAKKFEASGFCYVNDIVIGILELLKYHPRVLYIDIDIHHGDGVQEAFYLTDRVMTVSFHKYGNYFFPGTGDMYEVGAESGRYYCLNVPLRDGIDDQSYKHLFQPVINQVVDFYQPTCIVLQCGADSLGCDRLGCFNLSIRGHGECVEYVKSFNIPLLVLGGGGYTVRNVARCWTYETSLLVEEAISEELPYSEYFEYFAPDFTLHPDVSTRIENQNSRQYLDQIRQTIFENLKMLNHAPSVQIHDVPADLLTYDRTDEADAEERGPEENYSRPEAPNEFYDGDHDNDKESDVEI

With `COc1ccc(CNC(=O)c2cc(F)ccc2N2CCOCC2)cc1/C=C/C(=O)NO` the IC50 [1] was 30 nM, the Activity [2] was 15.68% and the Activity [3] was “Non-Toxic”. The Activity [4] was “Non-Toxic”, the Activity [5] was 2.85% and the Activity [6] was “Active”. The Activity [7] was “Non-Toxic”, the Activity [8] was “Active” and the IC50 at 72 h [9] was 13 nM. The Activity [10] was “Non-Toxic”, the inhibition [11] was “Dde” and the Activity [12] was “Non-Toxic”. For the same compound, the Activity [13] was “Non-Toxic”, the IC50 [14] was 29 nM and the Activity [15] was “Dde”. The Activity [16] was 46.69%, the inhibition [17] was “Active” and the Activity [18] was “Active”. For the same compound, the Activity [19] was “Non-Toxic”, the inhibition [20] was “Dde” and the Activity [21] was 26.84%. For the same compound, the inhibition [22] was “Active”, the Activity [23] was “Active” and the inhibition [24] was “Active”. The Activity [25] was 43.33%, the Activity [26] was 1.13% and the IC50 [27] was 2120 nM. For the same compound, the viability at 0.03 µM [28] was 46.6%, the CLH [29] was 41.7 mL/min/g and the Activity [30] was 49.39%.
